Experimental data from patent US20240084002A1, “METHODS AND COMPOSITIONS UTILIZING IDO1-DEPENDENT VASCULARIZING CELLS FOR THE TREATMENT OF PATHOLOGICAL CONDITIONS INVOLVING NEOVASCULARIZATION” (LANKENAU INSTITUTE FOR MEDICAL RESEARCH, priority 2020, published 2024).
Like-named read-outs stand apart in the source and are kept apart here.

Assays:
CHOP = test: qPCR of IFNγ+LPS mediated induction of CHOP in U937 and HL60 cells (ISR activation); assay type: cell-based, human; details: inhibitor 1 μM, 24 hr
Text: (§1) Quantitative real time PCR analysis.

IDO1 [1] = biological target: T1, IDO1 (Homo sapiens, UniProt P14902); test: Kynurenine levels in supernatants of IFNγ+LPS treated U937 and HL60 cells (IDO1 activity); assay type: cell-based; details: inhibitor 1 μM, 24 hr
T1 construct: endogenous in cells; host or cells: U937 (ATCC CRL-1593.2) and HL60 (ATCC CCL-240), stimulated with IFNγ + LPS
Protocol: Kynurenine assay. Levels of kynurenine in U937 and HL60 cell supernatants were measured using Ehrlich's reagent (p-dimethylamino-benzaldehyde). Following treatments, supernatants were collected and transferred to a V-bottom 96-well plate and mixed with 40 μL 50% (w/v) trichloroacetic acid (TCA; LabChem) to precipitate any protein. The plate was then incubated at 65° C. for 30 minutes followed by centrifugation at 1250×g for 10 minutes. Following centrifugation, 100 μL of clarified supernatant was transferred to a new flat-bottomed 96-well plate and mixed at equal volumes with 2% (w/v) Ehrlich's reagent in acetic acid. The resulting reaction was measured at 490 nm using a Synergy HT microtiter plate reader (Bio-Tek). Vitreous humor was collected from eyes of mice that underwent the OIR process. Levels of kynurenine were measured using the IDK® Kynurenin ELISA kit (Immundiagnostik AG, Bensheim, Germany) according to manufacturer's protocol. Additionally, levels of kynurenine were confirmed by high-performance liquid chromatography (HPLC) coupled to electrospray ionization liquid chromatography/ tandem mass spectroscopy (LC/MS-MS) as described (18).

ATF4 = test: qPCR of IFNγ+LPS mediated induction of ATF4 in U937 and HL60 cells (ISR activation); assay type: cell-based, human; details: inhibitor 1 μM, 24 hr
Text: as §1

U937 and HL60 cells [2] = test: Viability assay (LDI Cell CountEZ TPS assay kit); details: IFNγ+LPS, at the concentrations used (1 μM), 24 hrs
Protocol: (§2) Viability assay. Cell viability in U937 and HL60 cells was measured by LDI Cell CountEZ™ toxicity, proliferation and survival (TPS) assay kit (LDI1201™) as per the manufacturer's protocol. Both cell lines were plated at a density of 10,000 cells/ well of a 96 well plate in 100 μl DMEM medium with 10% FBS. […] Bortezomib (20 nM; LC Laboratories, Cat# B-1408) was used as positive control for inducing cellular apoptosis. Treated cells were incubated at 37° C. in a humidified CO2 incubator for 24 hrs. The TPS assay was then performed with cell viability assessed by reading absorbance at 412 nm in a microtiter plate reader.

IL6 gene expression [3] = test: qPCR of IFNγ+LPS mediated induction of IL6 gene expression in U937 and HL60 cells; assay type: cell-based, human; details: inhibitor 1 μM, 24 hr
Text: as §1

CYP1A1 = test: qPCR of IFNγ+LPS mediated induction of CYP1A1 in U937 and HL60 cells (AHR activation); details: inhibitor 1 μM, 24 hr
Protocol: Cell culture. The 4T1 (mouse mammary carcinoma; ATCC Cat# CRL-2539) and U937 (human histiocytic lymphoma; ATCC Cat# CRL-1593.2) cell lines were cultured in DMEM supplemented with penicillin, streptomycin, 10% FBS and 55 μM β-mercaptaethanol. The HL60 (human promyelocytic leukemia; ATCC Cat# CCL-240) cell line was maintained in IMDM media supplemented with 10% FCS plus 55 μM β-mercaptaethanol, 2 mM glutamax (Life Technologies), and 50 μg/ml gentamicin. […] No mycoplasma testing was done on the U937 or HL60 cell lines. […] In vitro experiments were performed with U937 and HL60 cells maintained no longer than passage 6. […] At 24 hr mRNA was prepared from the treated cells for qPCR-based analysis of gene expression and cell culture media was analyzed for levels of kynurenine to assess IDO1 enzymatic activity.
Quantitative real time PCR analysis. […] Quantitative PCR (QPCR) reactions were run using the Fast Start Universal SYBR Green Mix (Roche Applied Science) with an Eppendorf Realplex 4 Mastercycler QPCR machine. Levels of mRNA expression detected with primers specific for Atf4, Chop Il6 and Cyp1a1 (Tables 1-3) were normalized to 18S mRNA levels and differences between treatment groups were analyzed using the δ-δ cycle threshold method.

4T1 metastases = details: prior finding, reference (7); cited from earlier work
U937 and HL60 cells [4] = details: human, 24 h, 1 μM
Protocol: as §2

NOS2 = NOS2 staining of 4T1 lung metastases; assay type: in vivo, mouse; details: WT mice with 4T1 lung metastases, 50 mg/kg p.o. b.i.d. over 3 days
Gr-1+ CD11b^lo cells = test: Matrigel plug assay, neovascular density; assay type: in vivo, mouse; details: plugs with WT Gr-1+ CD11b^lo cells in WT mice, 50 mg/kg oral gavage b.i.d. for the final 3 days, plugs resected at day 9
Protocol: Matrigel Plug Assay. To assess the in vivo neovascularizing capability of select immune cell populations isolated from 4T1 pulmonary metastases, 5×10^4-2×10^6 sorted cells were isolated (as indicated in the corresponding figure legends) by fluorescence-activated cell sorting (BD FACSAria III) into RPMI+10% FCS and put on ice. Immediately following sorting, isolated immune cell populations were suspended in 250 μl PBS and combined with 250 μl Matrigel (Corning® Cat# 356237) per plug on ice for in vivo injections. Plugs were established by subcutaneous injection in the dorsal region of recipient mice using an ice-cold syringe with a 21 gauge needle. […] After 9 days post injection, the matrigel plug was harvested and images recorded with either a Samsung Galaxy S6 or an iPhone X using the 2× lens with an additional 10× macro lens attachment (Moment).
For blood vessel quantification, the Matrigel plugs were blocked in OCT and cryosectioned using the tape transfer method ([…] per plug). Following sectioning, neovascularization was visualized under confocal microscope by fluorescence staining with rabbit anti-mouse for caveolin 1 and quantitatively analyzed using Adobe Photoshop as described above. Statistical Analysis. […] Significance for Kaplan-Meier survival curves was determined by 2-group log-rank test. […]

IDO1 [5] = biological target: T1, IDO1; details: U937 and HL60 cells, previously shown, reference (9); cited from earlier work
IL6 gene expression [6] = details: U937 and HL60 cells, previously shown, reference (9); cited from earlier work

T1 sequence (P14902 whole entry): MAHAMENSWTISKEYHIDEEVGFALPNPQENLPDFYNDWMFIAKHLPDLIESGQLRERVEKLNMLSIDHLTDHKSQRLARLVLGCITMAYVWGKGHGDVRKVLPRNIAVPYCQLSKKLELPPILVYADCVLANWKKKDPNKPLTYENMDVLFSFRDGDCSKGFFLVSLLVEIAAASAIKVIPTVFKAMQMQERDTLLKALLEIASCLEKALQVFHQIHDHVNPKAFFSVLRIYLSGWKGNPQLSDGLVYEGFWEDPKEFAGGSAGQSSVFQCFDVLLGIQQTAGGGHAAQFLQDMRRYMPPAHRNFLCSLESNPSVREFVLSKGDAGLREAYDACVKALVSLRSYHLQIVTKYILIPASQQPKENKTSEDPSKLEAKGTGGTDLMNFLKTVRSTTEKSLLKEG

Molecule	effect on induction of CHOP message (CHOP)	effect on the level of kynurenine produced (IDO1 [1])	effect on induction of ATF4 message (ATF4)	impact on cell viability (U937 and HL60 cells [2])	effect on IL6 gene expression (IL6 gene expression [3])	also measured
O=C(COc1ccc(Cl)cc1)NC1CCC(NC(=O)COc2ccc(Cl)cc2)CC1 (stereo not drawn) [ISRIB]	blocked induction	neither had a significant effect	blocked induction	Neither ISRIB, Epacadostat nor BAY-218 had a sufficient impact on cell viability	effectively blocked	–
C[C@@H](CO)NC(=O)c1cc(-c2ccc(Cl)cc2)nn(-c2cccc(F)c2)c1=O [BAY-218]	–	neither had a significant effect	–	Neither ISRIB, Epacadostat nor BAY-218 had a sufficient impact on cell viability	no significant effect	effect on induction of CYP1A1 message (CYP1A1): blocked induction of CYP1A1
NS(=O)(=O)NCCNc1nonc1C(=NO)Nc1ccc(F)c(Br)c1 [Epacadostat]	effectively blocked	–	effectively blocked	–	–	blood vessel formation within established 4T1 metastases (4T1 metastases): reverses blood vessel formation; reduction IL6 gene expression (IL6 gene expression [3]): ≥ 99%; impact on cell viability (U937 and HL60 cells [4]): Neither ISRIB, Epacadostat nor BAY-218 had a sufficient impact on cell viability; NOS2 expression within lung metastases (NOS2): elicits NOS2 elevation; degree of neovascularization in Matrigel plugs (Gr-1+ CD11b^lo cells): decreased the degree of neovascularization promoted by CD11b^lo cells to a level quantifiably indistinguishable from CD11b^hi cells
methylthiohydantoin-DL-tryptophan [MTH-Trp]	–	–	–	–	–	IFNγ+LPS-mediated induction of IDO1 activity (IDO1 [5]): could be blocked; corresponding increase in IL6 (IL6 gene expression [6]): could be blocked
